We go through 32 compounds from ChEMBL document CHEMBL1165981, “Identification of novel quinazolin-4(3H)-ones as inhibitors of thermolysin, the prototype of the M4 family of proteinases” (Bioorg Med Chem, 2010).

The IC50 is the point on the concentration scale where inhibition reaches its midpoint. What is called Ki is the equilibrium dissociation constant of an inhibitor or competing ligand from its target.

In experiment [1] the target is T1, Thermolysin (Bacillus thermoproteolyticus, UniProt P00800).
T1 sequence (P00800 whole entry): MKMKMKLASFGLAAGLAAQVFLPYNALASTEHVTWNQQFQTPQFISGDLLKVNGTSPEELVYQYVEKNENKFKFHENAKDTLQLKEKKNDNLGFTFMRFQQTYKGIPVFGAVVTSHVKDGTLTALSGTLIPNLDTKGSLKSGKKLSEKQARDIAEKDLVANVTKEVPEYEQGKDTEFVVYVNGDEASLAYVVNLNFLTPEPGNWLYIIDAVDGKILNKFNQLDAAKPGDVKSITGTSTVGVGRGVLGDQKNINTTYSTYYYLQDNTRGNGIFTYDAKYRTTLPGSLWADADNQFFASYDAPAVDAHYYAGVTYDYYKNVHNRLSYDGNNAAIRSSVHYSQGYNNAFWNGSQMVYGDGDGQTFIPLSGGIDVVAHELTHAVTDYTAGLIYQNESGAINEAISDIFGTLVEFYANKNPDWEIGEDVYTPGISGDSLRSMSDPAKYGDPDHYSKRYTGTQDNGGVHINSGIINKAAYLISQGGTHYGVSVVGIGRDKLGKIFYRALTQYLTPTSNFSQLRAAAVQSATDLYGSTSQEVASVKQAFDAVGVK
Description: Inhibition of Bacillus thermoproteolyticus thermolysin after 15 mins by microplate spectrophotometric analysis in presence of 1.0 mM substrate FaGLa.

Experiment [2] addresses T1, Thermolysin. The experiment in a line: Inhibition of Bacillus thermoproteolyticus thermolysin after 15 mins by microplate spectrophotometric analysis in presence of 0.5 to 2 mM substrate FaGLa.

In the case of `Cc1nc2ccccc2c(=O)n1N`, on Thermolysin [1] (read-out: IC50), the concentration for half-maximal inhibition (IC50) turned out to be 54.9 µM. For the same compound, on Thermolysin [2], the inhibition constant (Ki) is 54.9 µM. Consider `Nn1c(C(F)(F)F)nc2ccccc2c1=O`, for which the IC50 on Thermolysin [1] (read-out: IC50) was 37.9 µM. Also, at Thermolysin [2], the Ki was found to be 37.9 µM.

Consider `NNc1nc2ccccc2c(=O)n1N`, for which the concentration for half-maximal inhibition (IC50) entry on Thermolysin [1] is reported as “Not Active”. As for `O=c1c2ccccc2ncn1CCO`, at Thermolysin [1], the 50% inhibitory concentration (IC50) entry was “Not Active”. On to `Cc1nc2ccccc2c(=O)n1N=C(N)N`, for which the half-inhibitory concentration (IC50) result on Thermolysin [1] was “Not Active”. Same read-out and setting: for `Cc1nc2ccccc2c(=O)n1NC(=O)CCl` the value was “Not Active”. Consider `O=c1[nH]c(-c2ccc(Cl)cc2)nc2ccccc12`, for which, at Thermolysin [1] (read-out: IC50), the 50% inhibitory concentration (IC50) was 1.25 µM. For the same compound, the Ki on Thermolysin [2] was determined as 1.25 µM. Consider `CC(=O)Nn1c(-c2ccccc2)nc2ccccc2c1=O`, for which, on Thermolysin [1], the IC50 result is recorded as “Not Active”.

For the compound `Cc1cc(C)c(-n2c(-c3ccccc3)nc3ccccc3c2=O)c(C)c1`, the concentration for half-maximal inhibition (IC50) result on Thermolysin [1] was “Not Active”. In the case of `Cc1nc2ccccc2c(=O)n1CCO`, the concentration for half-maximal inhibition (IC50) result at Thermolysin [1] is “Not Active”. Regarding `O=C(Nc1ccccc1C(=O)NCCCn1c(-c2ccccc2)nc2ccccc2c1=O)c1ccccc1`, at Thermolysin [1], the IC50 result was “Not Active”. As for `CO/C(C)=N/n1c(-c2ccccc2)nc2ccccc2c1=O`, on Thermolysin [1] (read-out: IC50), the IC50 came out at 123000 µM. The Ki on Thermolysin [2] turned out to be 106000 µM. On to `Cc1nc2ccccc2c(=O)n1NC(=O)c1ccccc1`, for which the IC50 result at Thermolysin [1] is recorded as “Not Active”. Regarding `CC(C)=NN1C(=O)c2ccccc2NC1(C)C`, the half-maximal inhibitory concentration (IC50) at Thermolysin [1] (read-out: IC50) worked out at 0.248 µM. The inhibition constant (Ki) at Thermolysin [2] is 0.243 µM.

`O=C1c2ccccc2NC(c2ccccc2)N1/N=C/c1ccccc1` (stereo unspecified): the IC50 entry at Thermolysin [1] is given as “Not Active”. Still for that read-out and setting: in the case of `O=c1c2ccccc2nc2n1NC(c1ccccc1)N(/N=C/c1ccccc1)C2` (stereo unspecified) it was “Not Active”. On to `C/C(=N\n1c(-c2ccccc2)nc2ccccc2c1=O)Nc1cccc2ccccc12`, for which the IC50 result at Thermolysin [1] is reported as “Not Active”.

As to `CCc1nc2ccccc2c(=O)[nH]1`, the half-inhibitory concentration (IC50) result at Thermolysin [1] is “Not Active”. As to `O=c1[nH]c(-c2ccc([N+](=O)[O-])cc2)nc2ccccc12`, the IC50 result on Thermolysin [1] is listed as “Not Active”. As for `Cc1ccc(C(=O)Nn2c(C)nc3ccccc3c2=O)cc1`, the half-maximal inhibitory concentration (IC50) result at Thermolysin [1] is given as “Not Active”. For the compound `CCOC(=O)Cc1nc2ccccc2c(=O)[nH]1`, the half-inhibitory concentration (IC50) result on Thermolysin [1] is “Not Active”. In the case of `COC(=O)c1ccccc1NC(=O)C(F)(F)F`, the IC50 entry on Thermolysin [1] is “Not Active”. On to `O=c1c2ccccc2nc(C(F)(F)F)n1-c1ccccc1`, for which the IC50 at Thermolysin [1] (read-out: IC50) amounted to 0.0115 µM. Further, on Thermolysin [2], the Ki came out at 0.0115 µM. Turning to `Cc1ccc(-c2nc3ccccc3c(=O)n2CCCN)cc1`, at Thermolysin [1], the half-inhibitory concentration (IC50) entry is reported as “Not Active”. Consider `Nn1c(-c2ccc(Cl)cc2)nc2ccccc2c1=O`, for which, on Thermolysin [1] (read-out: IC50), the IC50 was found to be 12700 µM. The Ki on Thermolysin [2] came to 10100 µM. For the compound `Nn1c(-c2ccccc2)nc2ccccc2c1=O`, the IC50 entry at Thermolysin [1] is “Not Active”. `Cc1ccc(-c2nc3ccccc3c(=O)n2-c2nccs2)cc1`: the half-inhibitory concentration (IC50) at Thermolysin [1] (read-out: IC50) was found to be 76.8 µM. At Thermolysin [2], the inhibition constant (Ki) worked out at 59.3 µM. As for `O=c1c2ccccc2nc(-c2ccccc2)n1-c1nccs1`, on Thermolysin [1], the IC50 result is reported as “Not Active”. As to `Nn1c(-c2ccc([N+](=O)[O-])cc2)nc2ccccc2c1=O`, the 50% inhibitory concentration (IC50) on Thermolysin [1] (read-out: IC50) came to 3120 µM. Further, the Ki on Thermolysin [2] was determined as 3120 µM. Regarding `O=c1c2ccccc2nc(-c2ccccc2)n1-c1ccc(I)cc1`, at Thermolysin [1], the IC50 entry is “Not Active”.

Consider `Cc1ccc(-c2nc3ccccc3c(=O)n2CCN)cc1`, for which the concentration for half-maximal inhibition (IC50) entry on Thermolysin [1] is “Not Active”. Take `CC(=O)Nn1c(C)nc2ccccc2c1=O`: the IC50 result on Thermolysin [1] was “Not Active”.
